Experimental data taken from patent US20180155344A1, “TRICYCLIC PIPERIDINE COMPOUNDS” (ACTELION PHARMACEUTICALS LTD, priority 2015, published 2018).
Where two headings read alike, the source gives them in different places.

Biological target: T1, human TPH1 (Homo sapiens, UniProt P17752)
T1 sequence (P17752 1-444): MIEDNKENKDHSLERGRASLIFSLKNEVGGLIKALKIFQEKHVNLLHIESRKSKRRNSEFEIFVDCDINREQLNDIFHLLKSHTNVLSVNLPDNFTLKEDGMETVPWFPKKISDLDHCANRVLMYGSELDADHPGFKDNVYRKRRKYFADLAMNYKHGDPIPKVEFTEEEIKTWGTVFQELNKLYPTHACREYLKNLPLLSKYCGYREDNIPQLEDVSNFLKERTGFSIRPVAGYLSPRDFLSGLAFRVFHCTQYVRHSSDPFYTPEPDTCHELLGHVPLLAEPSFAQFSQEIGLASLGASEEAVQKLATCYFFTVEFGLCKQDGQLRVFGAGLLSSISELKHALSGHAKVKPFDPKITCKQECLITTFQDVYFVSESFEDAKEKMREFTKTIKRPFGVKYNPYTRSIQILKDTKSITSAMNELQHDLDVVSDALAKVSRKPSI
Assay: biochemical
Text: Biochemical In Vitro Assay Using Fluorescence Readout
To generate the enzyme, full length human TPH1 is cloned into the plasmid pET20b(+) (Novagen) and expressed in E. coli. The bacterial cells are ruptured by sonication on ice and the lysate is cleared by centrifugation. The resulting protein in the pellet is re-extracted and TPH1 is purified from the obtained lysate by affinity chromatography using a pterin cosubstrate analog immobilized to the resin of the column. The protein is further purified by size exclusion chromatography to remove protein aggregates. The activity of TPH1 is determined by using a fluorescence assay. The enzyme activity assay is carried out at 15° C. with atmosphere oxygen for the duration of 60 minutes in a volume of 64 μl. The reaction is carried out in a 0.1 M Tris-HCl buffer, adjusted to pH 7.6, containing 1 mM DTT, 0.2 mg/mL catalase, 100 μM (±)-6-methyl-5,6,7,8-tetrahydropterine dihydrochloride, 40 μM L-tryptophan, and 40-80 nM of TPH1. The reaction is started by bringing together L-tryptophan with all the other reaction substituents and stopped by quenching with perchloric acid (HClO4). The amount of 5-hydroxy-L-tryptophan produced during the enzymatic reaction is determined by fluorescence readout. Fluorescence, as determined at 540 nm when excited at 300 nm wavelength, increases proportionally to the 5-hydroxy-L-tryptophan formed. Compounds are prepared as 10 mM stock solution in DMSO, then diluted in 384-well plates using DMSO followed by a transfer of the dilutions into the assay plate. Fluorescence is measured for each well and the fluorescence at 540 nm wavelength is compared to the fluorescence of the vehicle in place of compound. […] The calculated IC50 values may fluctuate depending on the daily biochemical assay performance. Fluctuations of this kind are known to those skilled in the art.

[1] = Table 1, full length human TPH1, 40 μM L-tryptophan, 15° C., 60 minutes, mean if determined several times

IC50 [nM] | Molecule | other results
69 | COc1ccc(C2c3c(nc4ccccn34)CCN2C(=O)COc2ccc(Cl)cc2Cl)cc1OC (centres unmarked) [Example 1.1.4, 2-(2,4-dichlorophenoxy)-1-(1-(3,4-dimethoxyphenyl)-3,4-dihydroimidazo[1,2-a:5,4-c′]dipyridin-2(1H)-yl)ethan-1-one] | –
8 | COc1ccc(C2c3c(nc4ccccn34)CCN2C(=O)COc2ccc3ccccc3c2Cl)cc1OC (centres unmarked) [Example 1.1.9, 2-((1-chloronaphthalen-2-yl)oxy)-1-(1-(3,4-dimethoxyphenyl)-3,4-dihydroimidazo[1,2-a:5,4-c′]dipyridin-2(1H)-yl)ethan-1-one] | –
92 | CCOC(=O)c1cc(OCC(=O)N2CCc3nc4ccccn4c3C2c2ccc(OC)c(OC)c2)c(CC)cc1C (centres unmarked) [Example 1.1.10, ethyl 5-(2-(1-(3,4-dimethoxyphenyl)-3,4-dihydroimidazo[1,2-a:5,4-c′]dipyridin-2(1H)-yl)-2-oxoethoxy)4-ethyl-2-methylbenzoate] | –
248 | CCc1cc(C)c(C(N)=O)cc1OCC(=O)N1CCc2nc3ccccn3c2C1c1ccc(OC)c(OC)c1 (centres unmarked) [Example 1.1.11, 5-(2-(1-(3,4-dimethoxyphenyl)-3,4-dihydroimidazo[1,2-a:5,4-c′]dipyridin-2(1H)-yl)-2-oxoethoxy)-4-ethyl-2-methylbenzamide] | –
141 | CCc1cc(C)c(C(=O)NC)cc1OCC(=O)N1CCc2nc3ccccn3c2C1c1ccc(OC)c(OC)c1 (centres unmarked) [Example 1.1.12, 5-(2-(1-(3,4-dimethoxyphenyl)-3,4-dihydroimidazo[1,2-a:5,4-c′]dipyridin-2(1H)-yl)-2-oxoethoxy)-4-ethyl-N,2-dimethylbenzamide] | –
40 | COc1ccc(C2c3c(nc4ccccn34)CCN2C(=O)COc2ccc(NS(C)(=O)=O)nc2Cl)c(F)c1 (centres unmarked) [Example 1.3.2, N-(6-chloro-5-(2-(1-(2-fluoro-4-methoxyphenyl)-3,4-dihydroimidazo[1,2-a:5,4-c′]dipyridin-2(1H)-yl)-2-oxoethoxy)pyridin-2-yl)methanesulfonamide] | –
19 | COc1ccc(C2c3c(nc4ccccn34)CCN2C(=O)COc2ccc(C(=O)NC3CC3)nc2Cl)c(F)c1 (centres unmarked) [Example 1.3.3, 6-chloro-N-cyclopropyl-5-(2-(1-(2-fluoro-4-methoxyphenyl)-3,4-dihydroimidazo[1,2-a:5,4-c′]dipyridin-2(1H)-yl)-2-oxoethoxy)picolinamide] | –
90 | O=C(COc1ccc(CN2CCOCC2)nc1Cl)N1CCc2nc3ccccn3c2C1c1ccc(Cl)cc1F (centres unmarked) [Example 1.4.4, 1-(1-(4-chloro-2-fluorophenyl)-3,4-dihydroimidazo[1,2-a:5,4-c′]dipyridin-2(1H)-yl)-2-((2-chloro-6-(morpholinomethyl)pyridin-3-yl)oxy)ethan-1-one] | –
78 | CCc1nc(C)ccc1OCC(=O)N1CCc2nc3ccccn3c2C1c1ccc(Cl)cc1F (centres unmarked) [Example 1.4.6, 1-(1-(4-chloro-2-fluorophenyl)-3,4-dihydroimidazo[1,2-a:5,4-c′]dipyridin-2(1H)-yl)-2-((2-ethyl-6-methylpyridin-3-yl)oxy)ethan-1-one] | –

Continued, molecule first:

Molecule | IC50 [nM] | other results
1-(1-(3,4-dimethoxyphenyl)-7-(trifluoromethyl)-3,4-dihydroimidazo[1,2-a:5,4-c′]dipyridin-2(1H)-yl)-2-(3-(trifluoromethyl)phenoxy)ethan-1-one [Example 3.1.10] | – | IC50 (Table 3, inhibitory activity on tryptophan hydroxylase 1): 251 nM
1-(1-(4-(aminomethyl)phenyl)-7-(trifluoromethyl)-3,4-dihydroimidazo[1,2-a:5,4-c′]dipyridin-2(1H)-yl)-2-(2-chloro-4-(morpholinomethyl)phenoxy)ethan-1-one [Example 3.31.2] | – | IC50 [1]: 145 nM
1-(1-(4-(aminomethyl)phenyl)-7-(trifluoromethyl)-3,4-dihydroimidazo[1,2-a:5,4-c′]dipyridin-2(1H)-yl)-2-(naphthalen-2-yloxy)ethan-1-one [Example 3.31.1] | – | IC50 [1]: 73 nM
2-((6-(aminomethyl)-2-chloropyridin-3-yl)oxy)-1-(9-(5-cyclopropyl-3-fluoropyridin-2-yl)-6,9-dihydropyrido[4′,3′:4,5]imidazo[1,2-b]pyridazin-8(7H)-yl)ethan-1-one [Example 16.2.4] | – | IC50 [1]: 401 nM
COc1ccc(C2c3c(nc4ccccn34)CCN2C(=O)COc2cc(C)ccc2C)cc1OC (centres unmarked) [Example 1.1.1, 1-(1-(3,4-dimethoxyphenyl)-3,4-dihydroimidazo[1,2-a:5,4-c′]dipyridin-2(1H)-yl)-2-(2,5-dimethylphenoxy)ethan-1-one] | 418 | –
COc1ccc(C2c3c(nc4ccccn34)CCN2C(=O)COc2ccc(C)cc2C)cc1OC (centres unmarked) [Example 1.1.2, 1-(1-(3,4-dimethoxyphenyl)-3,4-dihydroimidazo[1,2-a:5,4-c′]dipyridin-2(1H)-yl)-2-(2,4-dimethylphenoxy)ethan-1-one] | 180 | –
COc1ccc(C2c3c(nc4ccccn34)CCN2C(=O)COc2cccc3ccccc23)cc1OC (centres unmarked) [Example 1.1.3, 1-(1-(3,4-dimethoxyphenyl)-3,4-dihydroimidazo[1,2-a:5,4-c′]dipyridin-2(1H)-yl)-2-(naphthalen-1-yloxy)ethan-1-one] | 134 | –
COc1ccc(C2c3c(nc4ccccn34)CCN2C(=O)COc2ccc3ccccc3c2)cc1OC (centres unmarked) [Example 1.1.5, 1-(1-(3,4-dimethoxyphenyl)-3,4-dihydroimidazo[1,2-a:5,4-c′]dipyridin-2(1H)-yl)-2-(naphthalen-2-yloxy)ethan-1-one] | 24 | –
COc1ccc(C2c3c(nc4ccccn34)CCN2C(=O)COc2ccc3ccccc3c2C)cc1OC (centres unmarked) [Example 1.1.6, 1-(1-(3,4-dimethoxyphenyl)-3,4-dihydroimidazo[1,2-a:5,4-c′]dipyridin-2(1H)-yl)-2-((1-methylnaphthalen-2-yl)oxy)ethan-1-one] | 12 | –
CCc1c(OCC(=O)N2CCc3nc4ccccn4c3C2c2ccc(OC)c(OC)c2)ccc2ccccc12 (centres unmarked) [Example 1.1.7, 1-(1-(3,4-dimethoxyphenyl)-3,4-dihydroimidazo[1,2-a:5,4-c′]dipyridin-2(1H)-yl)-2-((1-ethylnaphthalen-2-yl)oxy)ethan-1-one] | 4 | –
COc1ccc(C2c3c(nc4ccccn34)CCN2C(=O)COc2ccc3ccccc3c2Br)cc1OC (centres unmarked) [Example 1.1.8, 2-((1-bromonaphthalen-2-yl)oxy)-1-(1-(3,4-dimethoxyphenyl)-3,4-dihydroimidazo[1,2-a:5,4-c′]dipyridin-2(1H)-yl)ethan-1-one] | 9 | –
O=C(COc1ccc(CN2CCOCC2)cc1Cl)N1CCc2nc3ccccn3c2C1c1cccnc1F (centres unmarked) [Example 1.2.1, 2-(2-chloro-4-(morpholinomethyl)phenoxy)-1-(1-(2-fluoropyridin-3-yl)-3,4-dihydroimidazo[1,2-a:5,4-c′]dipyridin-2(1H)-yl)ethan-1-one] | 209 | –
COc1ccc(C2c3c(nc4ccccn34)CCN2C(=O)COc2ccc(CN3CCOCC3)nc2Cl)c(F)c1 (centres unmarked) [Example 1.3.1, 2-((2-chloro-6-(morpholinomethyl)pyridin-3-yl)oxy)-1-(1-(2-fluoro-4-methoxyphenyl)-3,4-dihydroimidazo[1,2-a:5,4-c′]dipyridin-2(1H)-yl)ethan-1-one] | 84 | –
Cc1cc(Cl)ccc1OCC(=O)N1CCc2nc3ccccn3c2C1c1ccc(Cl)cc1F (centres unmarked) [Example 1.4.1, 1-(1-(4-chloro-2-fluorophenyl)-3,4-dihydroimidazo[1,2-a:5,4-c′]dipyridin-2(1H)-yl)-2-(4-chloro-2-methylphenoxy)ethan-1-one] | 18 | –
CCc1ncccc1OCC(=O)N1CCc2nc3ccccn3c2C1c1ccc(Cl)cc1F (centres unmarked) [Example 1.4.2, 1-(1-(4-chloro-2-fluorophenyl)-3,4-dihydroimidazo[1,2-a:5,4-c′]dipyridin-2(1H)-yl)-2-((2-ethylpyridin-3-yl)oxy)ethan-1-one] | 55 | –
O=C(COc1cccnc1Cl)N1CCc2nc3ccccn3c2C1c1ccc(Cl)cc1F (centres unmarked) [Example 1.4.3, 1-(1-(4-chloro-2-fluorophenyl)-3,4-dihydroimidazo[1,2-a:5,4-c′]dipyridin-2(1H)-yl)-2-((2-chloropyridin-3-yl)oxy)ethan-1-one] | 271 | –
O=C(COc1ccc(N2CCOCC2)nc1Cl)N1CCc2nc3ccccn3c2C1c1ccc(Cl)cc1F (centres unmarked) [Example 1.4.5, 1-(1-(4-chloro-2-fluorophenyl)-3,4-dihydroimidazo[1,2-a:5,4-c′]dipyridin-2(1H)-yl)-2-((2-chloro-6-morpholinopyridin-3-yl)oxy)ethan-1-one] | 5 | –
